Consider five compounds from ChEMBL document CHEMBL1201862, “PubChem BioAssay data set” (2004).

Test [1] has as its system INS1. The experiment in a line: beta-cell survival under cytokine stress – INS-1E, ATP luminescence, dry powder, dose response (AID 488844). Format: functional, cell-based. As to conditions: Rattus norvegicus.
The test system of test [2] is INS1. The experiment in a line: suppression of NO production in INS-1E cells – cell-based, Griess absorbance, dry powder, set 2, dose response (AID 488868). Format: functional. As to conditions: Rattus norvegicus. Background: Griess reagent forms a coloured azo dye with nitrite.
Test [3] can be described thus: THP-1 cell cytotoxicity, dose response, cytotoxicity control, set 3 (AID 504852). As to conditions: Mycobacterium tuberculosis. Format: functional.
A short description of test [4]: THP-1 cell cytotoxicity, cytotoxicity control, set 4 (AID 504911). Format: functional. The note with it: Mycobacterium tuberculosis.
The target in test [5] is Phosphorylase b kinase gamma catalytic chain, liver/testis isoform (Homo sapiens, UniProt P15735). Format: functional.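 Further: PHKG2 measured as one member of a kinome-wide kinase panel.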
The target of test [6] is Beta Lactamase (Pseudomonas aeruginosa, UniProt Q932Y6). The test is described as follows: BLA reporter interference, concentration series – BLA reporter cells, FRET fluorescence, artefact control for TLR9-MyD88 binding inhibitor project, dose response (AID 588341).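 Further: cell based assay in CHO-K1 cells stably expressing beta-lactamase.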 Format: cell-based.
Test [7] addresses T1, Endoribonuclease toxin MazF (Escherichia coli K-12, UniProt P0AE70).
T1 sequence (P0AE70 whole entry): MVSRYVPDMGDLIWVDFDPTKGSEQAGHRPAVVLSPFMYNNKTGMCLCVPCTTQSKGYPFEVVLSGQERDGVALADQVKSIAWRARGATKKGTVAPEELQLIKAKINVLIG
The experiment in a line: substrate-only fluorescence increase artefacts – biochemical, single-stranded RNase substrate, counter-screen for MazEF activator project, dose response (AID 588502). Format: functional. In general terms: Counterscreens check selectivity or assay interference.

The test system of test [8] is CHO. The test is described as follows: CHO cell viability loss, potency – luminescence, cytotoxicity control for TLR9-MyD88 binding inhibitor project, dose response (AID 588339).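 Further: CHO cells stably coexpressing TLR9 and MyD88 fusions from primary screen; compound exposure lasted 48 hours before viability readout.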 Format: functional, cell-based, hamster. As to conditions: Cricetulus griseus.
Test [9] deals with T1, Endoribonuclease toxin MazF. The test is described as follows: activation of MazEF endoribonuclease cleavage – biochemical, fluorescence, single-stranded RNA substrate, uHTS hits, dose response (AID 588481). Format: functional.
Test [10] relates to BJ. The test is described as follows: BJ-TERT-LT-ST fibroblast viability loss – cell-based, RAS-independent, luminescence, dose response (AID 1935).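 Further: BJ fibroblasts immortalized with TERT plus LT and ST oncogenes.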 Format: functional. As to conditions: Homo sapiens.
Test [11] concerns BJ. The experiment in a line: cells. Format: functional, cell-based. The note with it: Homo sapiens.
Test [12] can be described thus: DRD fibroblast viability loss – cell-based, non-viral oncogenic, luminescence, dose response (AID 1934). As to conditions: Homo sapiens. Format: functional.
Test [13] deals with BJ. The experiment in a line: growth inhibition of engineered Ras-driven BJ cells – cell-based, alamar blue fluorescence, cherrypicked samples, dose response (AID 2631).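 Further: confirmatory dose-response assay in RAS-dependent BJ fibroblasts engineered with TERT, LT and ST, with cytotoxicity read by fluorescence.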 The note with it: Homo sapiens. Format: functional. A general note: Resazurin is reduced to fluorescent resorufin, in cell work by metabolically active cells.
For test [14], the system named is BJ. The test is described as follows: BJ-TERT fibroblast viability loss – cell-based, RAS-independent, luminescence, dose response (AID 1933). Format: functional. As to conditions: Homo sapiens.

The source made the active and inactive calls.

Beta Lactamase, sequence (Q932Y6 whole entry): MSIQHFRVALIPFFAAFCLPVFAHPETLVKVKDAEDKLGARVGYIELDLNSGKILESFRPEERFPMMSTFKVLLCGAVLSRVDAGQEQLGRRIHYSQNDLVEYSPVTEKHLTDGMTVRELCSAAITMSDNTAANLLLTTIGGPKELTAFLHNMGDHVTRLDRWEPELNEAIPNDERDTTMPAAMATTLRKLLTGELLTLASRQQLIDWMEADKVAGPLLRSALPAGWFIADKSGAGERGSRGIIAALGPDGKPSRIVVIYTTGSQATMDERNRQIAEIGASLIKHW
Phosphorylase b kinase gamma catalytic chain, liver/testis isoform, sequence (P15735 whole entry, canonical isoform): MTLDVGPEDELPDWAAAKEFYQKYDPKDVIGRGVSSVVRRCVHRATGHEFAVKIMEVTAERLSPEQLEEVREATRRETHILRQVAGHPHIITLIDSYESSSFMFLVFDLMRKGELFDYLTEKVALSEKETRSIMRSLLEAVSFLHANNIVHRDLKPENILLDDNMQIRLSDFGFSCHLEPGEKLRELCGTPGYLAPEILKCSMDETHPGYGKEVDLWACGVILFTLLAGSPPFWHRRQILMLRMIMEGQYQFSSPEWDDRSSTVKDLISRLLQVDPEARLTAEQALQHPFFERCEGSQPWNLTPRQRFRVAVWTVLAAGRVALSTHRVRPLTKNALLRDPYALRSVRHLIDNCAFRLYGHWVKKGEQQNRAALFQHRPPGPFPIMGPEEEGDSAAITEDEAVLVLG

As usually defined, the AC50 is the midpoint of the concentration-response curve, whichever way the signal moves. For `C[C@@H]1CN([C@H](C)CO)C(=O)c2cccc(NC(=O)Nc3ccccc3)c2O[C@H]1CN(C)S(=O)(=O)c1ccc(Cl)cc1`, the results for the AC50 in [1] and in test [2] were 22.4 µM (active) and 41.6 µM (active), respectively.

Usually CC50 stands for the concentration giving 50% cytotoxicity. Regarding `O=C(CSc1ccccn1)NC1CCCCC1`, the CC50 in [3] and in test [4] was > 100 µM (active) throughout.

Usually Ki stands for a measure of affinity in units of concentration, obtained from inhibition or displacement. Turning to `NC(=O)c1cccc2[nH]c(-c3ccncc3)nc12`, in [5], the Ki was 1 µM (active).

The IC50 is the concentration at which inhibition is half-maximal. Usually EC50 stands for the concentration giving half of the maximal effect. With `Cn1cccc1/C=C1\CCC/C(=C\c2cccn2C)C1=O`, the IC50 in test [6] was 10.9 µM (inactive); in test [8], > 49.8 µM (inactive). The EC50 in test [7] was 23.9 µM (inactive); in [9], > 99 µM (inactive).

With `Cc1nc(=O)c2cc(CN(C)c3ccc(C(=O)N[C@@H](CCC(=O)O)C(=O)O)s3)ccc2[nH]1` [RALTITREXED], the EC50 in test [10] was > 150 µM (inconclusive); in [11], 0.192 µM (inconclusive); in test [12], > 150 µM (inconclusive); in [13] it was > 133 µM (inactive); in test [14], > 150 µM (not active).
